{
  "source": "the OPERA property sets (Mansouri et al. 2018)",
  "data": [
    {"units": {"melting point": "°C", "boiling point": "°C"}, "values": [
      {"compound": "O=C(O)Cc1cc(I)c(Oc2ccc(O)c(I)c2)c(I)c1", "melting point": 182},
      {"compound": "CC(=O)OCC(=O)[C@@]12OC(C)(C)O[C@@H]1C[C@H]1[C@@H]3CC(C=O)=C4C=C(OCCCl)CC[C@]4(C)[C@@]3(F)[C@@H](O)C[C@@]12C", "melting point": 181},
      {"compound": "FC(F)(F)C(F)(F)C(F)(F)C(F)(F)C(F)(F)F", "boiling point": 29.2, "melting point": -100},
      {"compound": "CCCc1ccccc1O", "boiling point": 220, "log10 vapour pressure (mmHg)": -1.05, "melting point": 7},
      {"compound": "Cc1ccccc1O", "boiling point": 191, "log10 Henry constant (atm·m³/mol)": -5.92, "log10 vapour pressure (mmHg)": -0.524, "melting point": 29.8, "ready biodegradability": "readily biodegradable"},
      {"compound": "COC(CCl)OC", "boiling point": 128},
      {"compound": "NC(=O)Oc1ccccc1", "melting point": 150},
      {"compound": "C/C=C(/C)CCC", "boiling point": 95.6, "melting point": -118},
      {"compound": "O=C(NC(=O)c1c(F)cccc1F)Nc1cc(Cl)c(Oc2ncc(C(F)(F)F)cc2Cl)c(Cl)c1", "log10 Henry constant (atm·m³/mol)": -11.7},
      {"compound": "Nc1c(Cl)c(Cl)c(Cl)c(Cl)c1Cl", "log10 Koc (L/kg)": 4.62, "melting point": 235, "ready biodegradability": "not readily biodegradable"},
      {"compound": "O=C(O)c1ccc([N+](=O)[O-])cc1Cl", "melting point": 140},
      {"compound": "CC(Oc1cc(Cl)c(Cl)cc1Cl)C(=O)O", "note": "(centres undefined)", "log10 Koc (L/kg)": 1.75, "melting point": 182, "ready biodegradability": "not readily biodegradable"},
      {"compound": "CC(C)=CCC[C@@H](C)[C@H]1CC[C@@]2(C)C3=C(CC[C@]12C)[C@@]1(C)CC[C@H](O)C(C)(C)[C@@H]1CC3", "melting point": 140},
      {"compound": "COC(=O)CC(O)(CC(=O)OC)C(=O)OC", "boiling point": 285, "melting point": 79.3},
      {"compound": "COC(=O)Cc1ccccc1", "boiling point": 216},
      {"compound": "COP(=S)(OC)Oc1c(Cl)cc(C)cc1Cl", "log10 Koc (L/kg)": 3.7, "log10 vapour pressure (mmHg)": -3.37, "melting point": 79},
      {"compound": "C[Si](C)(Cl)O[Si](C)(C)O[Si](C)(C)Cl", "boiling point": 184, "melting point": -53},
      {"compound": "CCN(N)c1ccccc1", "boiling point": 237},
      {"compound": "C[C@H]1CC(=O)C[C@@H]2CC[C@H]3[C@@H]4CC[C@H](O)[C@@]4(C)CC[C@@H]3[C@]21C", "melting point": 204},
      {"compound": "O=C1OC(C(O)CO)C(O)=C1O", "note": "(centres undefined)", "melting point": 168},
      {"compound": "O=C(O)[C@H](O)[C@@H](O)C(=O)O", "ready biodegradability": "readily biodegradable"},
      {"compound": "Nc1ccc2ncccc2c1", "log10 vapour pressure (mmHg)": -4.79, "melting point": 114},
      {"compound": "Clc1ccc(-c2cc(Cl)c(Cl)c(Cl)c2)cc1Cl", "log10 Koa": 10.3},
      {"compound": "CCC(CC)CC", "boiling point": 93.5, "log10 biodegradation half-life (days)": 0.602, "log10 vapour pressure (mmHg)": 1.76, "melting point": -119},
      {"compound": "CC[C@H](c1ccc(O)cc1)[C@@H](CC)c1ccc(O)cc1", "melting point": 186},
      {"compound": "COC(=O)C(Cl)Cl", "boiling point": 143, "log10 vapour pressure (mmHg)": 0.654, "melting point": -51.9},
      {"compound": "Cc1ccc(S(=O)(=O)c2coc(S(N)(=O)=O)c2)cc1", "melting point": 185},
      {"compound": "CCCCCCCCCCC(C)O", "note": "(centres undefined)", "boiling point": 252, "melting point": 19},
      {"compound": "COc1ccc(NC(C)=O)cc1Cl", "log10 Koc (L/kg)": 1.95},
      {"compound": "C1CCCCCCCCC1", "boiling point": 202, "log10 vapour pressure (mmHg)": -0.252, "melting point": 10},
      {"compound": "CNC(=O)Oc1cc(C)c(SC)c(C)c1", "log10 Henry constant (atm·m³/mol)": -8.93, "log10 Koc (L/kg)": 2.32, "log10 vapour pressure (mmHg)": -6.57, "melting point": 120},
      {"compound": "CCC(C)c1ccccc1OC(=O)NC", "note": "(centres undefined)", "log10 Koc (L/kg)": 1.71, "log10 vapour pressure (mmHg)": -3.85, "melting point": 31.5, "ready biodegradability": "not readily biodegradable"},
      {"compound": "C=CCCCCCCCCCC", "boiling point": 214, "log10 vapour pressure (mmHg)": -0.797, "melting point": -35.2},
      {"compound": "CCCCCCCCl", "boiling point": 159, "log10 vapour pressure (mmHg)": 0.451, "melting point": -69.5},
      {"compound": "O=C1c2ccccc2C(=O)c2c1ccc([N+](=O)[O-])c2[N+](=O)[O-]", "log10 vapour pressure (mmHg)": -11.2, "melting point": 341},
      {"compound": "CC(=O)Oc1cc(C)ccc1C", "boiling point": 237},
      {"compound": "CON(C(=O)c1cc(C)oc1C)C1CCCCC1", "melting point": 33},
      {"compound": "FC(F)(Cl)C(F)(Cl)Cl", "boiling point": 47.7, "log10 vapour pressure (mmHg)": 2.56, "melting point": -35, "ready biodegradability": "not readily biodegradable"},
      {"compound": "Clc1cc(Cl)c(-c2ccccc2)c(Cl)c1Cl", "log10 Henry constant (atm·m³/mol)": -3.68},
      {"compound": "Cc1cccc(C#N)c1", "boiling point": 213, "melting point": -23},
      {"compound": "Brc1ccc2c(c1)Oc1ccc(Br)cc1O2", "log10 vapour pressure (mmHg)": -5.95, "melting point": 193},
      {"compound": "CCc1cc2ccccc2c2ccccc12", "melting point": 62.5},
      {"compound": "CN(C)C=Nc1ccccc1", "boiling point": 127},
      {"compound": "COc1cc(OC)cc(O[C@H]2O[C@H](CO)[C@@H](O)[C@H](O)[C@H]2O)c1", "melting point": 170},
      {"compound": "CCC(C)(C)c1ccc(O)cc1", "boiling point": 262, "log10 vapour pressure (mmHg)": -2.7, "melting point": 95},
      {"compound": "CCCC(C)CC=O", "note": "(centres undefined)", "boiling point": 143},
      {"compound": "CC(C)(c1cc(Cl)c(O)c(Cl)c1)c1cc(Cl)c(O)c(Cl)c1", "melting point": 135},
      {"compound": "CC(N)(CO)CO", "melting point": 110},
      {"compound": "ClCCCCCCCl", "boiling point": 204},
      {"compound": "Ic1cc(I)c(I)cc1I", "melting point": 254},
      {"compound": "C[C@H](CCC(=O)O)[C@H]1CC[C@H]2[C@@H]3CC[C@@H]4C[C@H](O)CC[C@]4(C)[C@H]3CC[C@]12C", "melting point": 186},
      {"compound": "CC[C@H]1OC(=O)[C@H](C)[C@@H](O[C@H]2C[C@@](C)(OC)[C@@H](O)[C@H](C)O2)[C@H](C)[C@@H](O[C@@H]2O[C@H](C)C[C@H](N(C)C)[C@H]2O)[C@](C)(O)C[C@@H](C)C(=O)[C@H](C)[C@@H](O)[C@]1(C)O", "melting point": 191},
      {"compound": "C#CCCl", "boiling point": 58},
      {"compound": "C=C(CC)CCC", "boiling point": 94},
      {"compound": "Cn1ccnc1", "boiling point": 196, "melting point": -6},
      {"compound": "O=C(O)/C(=C\\c1ccccc1)c1ccccc1", "melting point": 172},
      {"compound": "O=C(O)C1CC1", "boiling point": 183, "log10 vapour pressure (mmHg)": -0.62, "melting point": 18.5},
      {"compound": "Clc1cccc(-c2c(Cl)cc(Cl)c(Cl)c2Cl)c1Cl", "log10 Henry constant (atm·m³/mol)": -4.41}
    ]}
  ]
}
